Columns and labels:
[1] = Ultrasound delivery of Riboflavin-5-Phosphate into porcine corneas, fluorescent measurement of extract; conditions: epi-off; 0.1% solution; ultrasound 40 kHz, mechanical index 0.2, for 5 minutes or less
Method: Riboflavin-5-Phosphate (R5P), 1.5 mL, 0.1% solution was applied to a porcine eyeball, epi-off. The ultrasound parameters were 40 kHz, mechanical index 0.2. The cornea was in full contact with R5P over indicated time period. The cornea was excised and weighed. Extracted supernatant with R5P was used for fluorescent measurement.

[2] = tested on: experimental autoimmune uveitis (EAU); test: In vivo delivery of dexamethasone into mice eyes for treatment of experimental autoimmune uveitis (ultrasound versus intravitreal injection)
Method: The procedure relates to an in vivo study of delivering small molecules into mice eyes for treatment of experimental autoimmune uveitis (EAU). The small molecules used were dexamethasone, with of a molecular weight of about […]. For a given animal subject, the drug was delivered via intravitreal injection (10 μg in 1 μL balanced salt solution), to the left eye. For the right eye, the drug (10 μg in 1 μL balanced salt solution, repeat 3 times) was delivered by 40 kHz ultrasound.
A timeline is illustrated of the experimental procedure. EAU mice were provided as described. The final n=2, as one mouse was dead on day 10 during the first treatment. On day 0, EAU induction occurred. Baseline imaging by confocal scanning laser ophthalmology (cSLO) and optical coherence tomography (OCT) occurred on day 0. On day 10, the drug was applied via ultrasound on the right eye. The drug was applied via intravitreal injection to the left eye. On day 13, imaging was conducted via cSLO and OCT. On days 13, 17, and 20, the drug was delivered to the right eye via ultrasound. On day 21, the mice were sacrificed for histology. Imaging was conducted by cSLO and OCT.

[3] = Ultrasound delivery of riboflavin into ex vivo pig corneas; parameters: species or system porcine
Method: For example, a riboflavin molecule may be delivered into a cornea by ultrasound. An ex vivo study was conducted of delivering small molecules into porcine corneal tissue. The small molecules used was riboflavin. The small molecules may have a molecular weight of about 376 g/mol or less. By using ultrasound at 40 kHz, at least 15 μg/mL of riboflavin was delivered into the deep corneal stromal tissue.
An illustration is provided of riboflavin 1 mg/mL delivered into ex vivo pig corneas. The riboflavin concentration in μg/mL is shown for different circumstances, such as epithelium debrided (Epi-off) cornea with 30 minutes riboflavin contact, Epi-Off with 3 cycles of 90 seconds ultrasound+15 minutes breaks in between and Epi-Off with 3 cycles of 90 seconds ultrasound+5 minutes break in between. 0.1% Riboflavin solution, Peschke D was delivered in ex-vivo pig corneas. The 15 μg/mL safety threshold is exceeded by applying 3 cycles of 90 seconds ultrasound with 5 minute breaks in between.

SMILES: Cc1cc2nc3c(=O)[nH]c(=O)nc-3n(C[C@H](O)[C@H](O)[C@H](O)COP(=O)(O)O)c2cc1C [Riboflavin-5-Phosphate]
- concentration delivered into porcine corneas compared with typical Dresden protocol (30 minutes instillation) [1]: reached the therapeutic threshold

SMILES: C[C@@H]1C[C@H]2[C@@H]3CCC4=CC(=O)C=C[C@]4(C)[C@@]3(F)[C@@H](O)C[C@]2(C)[C@@]1(O)C(=O)CO [dexamethasone]
- retina injury (FFA photo and OCT sections) ([2]; left eye, intravitreal injection 10 μg in 1 μL, retinal change still existed at day 21): retina injury caused by intravitreal injection
- retina injury (fundus photos, FFA) ([2]; right eye of Mouse 1 and Mouse 2, drug delivered by 40 kHz ultrasound, days 13 and 21): no injury of retina

SMILES: Cc1cc2nc3c(=O)[nH]c(=O)nc-3n(C[C@H](O)[C@H](O)[C@H](O)CO)c2cc1C [riboflavin]
- riboflavin concentration in cornea versus 15 μg/mL safety threshold ([3]; ex vivo pig cornea, Epi-Off, 0.1% riboflavin solution, 3 cycles of 90 seconds ultrasound with 5 minute breaks in between): > 15 µg/mL
- riboflavin delivered into the deep corneal stromal tissue ([3]; ex vivo porcine cornea, ultrasound at 40 kHz): at least 15 μg/mL

Source: patent US20260033988A1, “SYSTEM AND METHOD FOR ULTRASOUND-ENHANCED DELIVERY OF DRUGS” (Sonikure Holdings Limited, priority 2016, published 2026)
